Consider 11 molecules from US7544689B2, “Purine derivatives” (Cyclacel Limited, priority 2002, dated 2009).

By IC50 is commonly meant the concentration needed to halve the response being measured.

In one data set the target is T1, CDK2/cyclin E (Homo sapiens, UniProt P24941).
T1 construct: His6; made in house; host or cells: Sf9 insect cells (baculovirus)
In words: Kinase assay, CDK2/cyclin E inhibition. The class given is biochemical.

For a further data set, the target named is T2, CDK1/cyclin B (Homo sapiens, UniProt P06493).
T2 construct: His6; made in house; host or cells: Sf9 insect cells (baculovirus)
T2 sequence (P06493 whole entry): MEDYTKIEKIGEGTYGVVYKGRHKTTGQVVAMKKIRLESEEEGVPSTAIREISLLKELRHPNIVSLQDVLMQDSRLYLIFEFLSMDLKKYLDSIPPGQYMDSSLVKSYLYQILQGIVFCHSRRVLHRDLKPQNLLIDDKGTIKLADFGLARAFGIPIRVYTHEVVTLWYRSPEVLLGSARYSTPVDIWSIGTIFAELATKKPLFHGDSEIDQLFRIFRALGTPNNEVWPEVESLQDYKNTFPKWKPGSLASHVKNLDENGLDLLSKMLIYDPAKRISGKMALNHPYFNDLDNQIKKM
T2 sequence (P14635 whole entry partner): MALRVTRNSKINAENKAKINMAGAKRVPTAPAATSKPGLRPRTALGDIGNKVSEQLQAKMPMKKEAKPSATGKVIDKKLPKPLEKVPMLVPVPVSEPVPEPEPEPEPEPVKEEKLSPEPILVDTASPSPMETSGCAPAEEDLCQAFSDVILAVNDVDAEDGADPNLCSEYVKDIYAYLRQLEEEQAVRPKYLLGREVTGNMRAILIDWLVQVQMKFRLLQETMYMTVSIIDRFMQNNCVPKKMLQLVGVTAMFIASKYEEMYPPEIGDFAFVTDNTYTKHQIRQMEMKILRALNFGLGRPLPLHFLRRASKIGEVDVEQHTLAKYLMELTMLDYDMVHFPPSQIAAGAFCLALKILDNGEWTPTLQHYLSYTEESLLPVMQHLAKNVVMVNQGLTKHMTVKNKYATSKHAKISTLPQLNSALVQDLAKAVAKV
Kind of data set: Kinase assay, CDK1/cyclin B inhibition. The class given is biochemical.

The target in a further data set is T3, CDK4/cyclin D1 (Homo sapiens, UniProt P11802).
T3 construct: His6; made in house; host or cells: CDK4: Sf9 insect cells (baculovirus); cyclin D1: E. coli
T3 sequence (P11802 whole entry): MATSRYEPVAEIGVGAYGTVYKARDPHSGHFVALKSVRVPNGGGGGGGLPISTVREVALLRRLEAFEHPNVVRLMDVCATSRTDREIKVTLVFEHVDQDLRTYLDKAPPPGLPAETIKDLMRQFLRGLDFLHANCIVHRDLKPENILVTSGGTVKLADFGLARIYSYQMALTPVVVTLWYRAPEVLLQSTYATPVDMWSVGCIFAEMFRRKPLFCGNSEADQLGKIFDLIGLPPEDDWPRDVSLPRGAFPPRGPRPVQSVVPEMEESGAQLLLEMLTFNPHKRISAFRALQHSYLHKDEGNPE
T3 sequence (P24385 whole entry partner): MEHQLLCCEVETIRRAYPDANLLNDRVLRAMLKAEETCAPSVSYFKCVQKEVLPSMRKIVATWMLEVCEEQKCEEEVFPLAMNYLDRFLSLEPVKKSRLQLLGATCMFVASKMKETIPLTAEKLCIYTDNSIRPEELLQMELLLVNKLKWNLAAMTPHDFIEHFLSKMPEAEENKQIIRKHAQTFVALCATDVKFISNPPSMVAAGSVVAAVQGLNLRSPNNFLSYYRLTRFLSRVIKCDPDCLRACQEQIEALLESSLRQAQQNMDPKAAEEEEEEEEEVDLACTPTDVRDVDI
In words: Kinase assay, CDK4/cyclin D1 inhibition. It is filed as biochemical.

In a further data set the target is T4, CDK7/cyclin H (Homo sapiens, UniProt P50613).
T4 construct: His6; made in house; host or cells: Sf9 insect cells (baculovirus)
T4 sequence (P50613 whole entry): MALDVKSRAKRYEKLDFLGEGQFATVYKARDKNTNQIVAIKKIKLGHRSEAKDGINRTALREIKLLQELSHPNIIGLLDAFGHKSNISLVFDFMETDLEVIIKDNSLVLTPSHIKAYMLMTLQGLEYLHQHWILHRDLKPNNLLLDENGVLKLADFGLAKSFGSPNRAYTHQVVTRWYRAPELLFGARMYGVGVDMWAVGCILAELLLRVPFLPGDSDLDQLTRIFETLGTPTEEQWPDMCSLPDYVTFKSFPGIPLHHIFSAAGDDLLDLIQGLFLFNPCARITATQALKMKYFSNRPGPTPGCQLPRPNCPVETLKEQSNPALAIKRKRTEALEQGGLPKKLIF
T4 sequence (P51946 whole entry partner): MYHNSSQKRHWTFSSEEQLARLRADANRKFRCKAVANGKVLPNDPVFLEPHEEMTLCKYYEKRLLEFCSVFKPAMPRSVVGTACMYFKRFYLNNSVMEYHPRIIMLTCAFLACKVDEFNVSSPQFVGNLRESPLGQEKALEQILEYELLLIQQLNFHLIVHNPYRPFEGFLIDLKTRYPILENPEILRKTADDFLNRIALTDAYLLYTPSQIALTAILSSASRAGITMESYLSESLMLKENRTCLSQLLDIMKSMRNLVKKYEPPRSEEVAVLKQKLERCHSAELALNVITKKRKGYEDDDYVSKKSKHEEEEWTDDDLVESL
Kind of data set: Kinase assay, CDK7/cyclin H inhibition. It is filed as biochemical.

In data set [1] the target is T5, cyclic AMP-dependent kinase (PKA) catalytic subunit (Homo sapiens, UniProt P17612).
T5 construct: purchased Calbiochem 539487
Kind of data set: Kinase assay, PKA inhibition. The class given is biochemical.
Procedure: (§1) Recombinant cyclin DI was expressed in E. coli. Proteins were purified by metal chelate affnity chromatography to greater than 90% homogeneity. […] Reactions were stopped on ice, followed by filtration through p81 filterplates or GF/C filterplates (for CDK4) (Whatman Polyfiltronics, Kent, UK), except for CDK7 where, after stopping reaction on ice, 10 μL of 10 mg/mL avidin was added to each well and further incubated for 10 min followed by filtration as per CDK2 assay. After washing 3 times with 75 mM aq orthophosphoric acid, plates were dried, scintillant added and incorporated radioactivity measured in a scintillation counter (TopCount, Packard Instruments, Pangbourne, Berks, UK). Compounds for kinase assay were made up as 10 mM stocks in DMSO and diluted into 10% DMSO in assay buffer.

The target in a further data set is T6, ERK2 (Homo sapiens, UniProt P28482).
T6 construct: purchased Upstate Biotechnology
T6 sequence (P28482 whole entry, species assumed): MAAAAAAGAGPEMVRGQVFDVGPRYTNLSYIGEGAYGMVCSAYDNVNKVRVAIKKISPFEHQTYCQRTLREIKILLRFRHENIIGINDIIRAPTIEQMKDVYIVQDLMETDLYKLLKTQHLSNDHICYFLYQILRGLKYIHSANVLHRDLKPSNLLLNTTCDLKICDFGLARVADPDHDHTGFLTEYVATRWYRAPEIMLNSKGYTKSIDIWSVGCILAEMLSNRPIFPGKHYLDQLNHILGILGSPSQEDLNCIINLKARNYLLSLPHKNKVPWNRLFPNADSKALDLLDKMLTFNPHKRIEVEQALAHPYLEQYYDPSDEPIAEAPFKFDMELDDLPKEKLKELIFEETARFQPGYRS
Kind of data set: Kinase assay, ERK-2 inhibition. It is filed as biochemical.

The test system of data set [2] is Human tumour cell lines: A549, HT29, Saos-2. Kind of data set: 72-h MTT cytotoxicity assay. It is filed as cell-based. Conditions: for IC50: read-out: In vitro anti-proliferative activity (72 h MTT IC50), 72 h MTT, human tumour cell lines A549, HT29, Saos-2. How it is done: In short: cells were seeded into 96-well plates according to doubling time and incubated overnight at 37° C. Test compounds were made up in DMSO and a 1/3 dilution series prepared in 100 μL cell media, added to cells (in triplicates) and incubated for 72 ho at 37° C. MTT was made up as a stock of 5 mg/mL in cell media and filter-sterilised. Media was removed from cells followed by a wash with 200 μL PBS. MTT solution was then added at 20 μL per well and incubated in the dark at 37° C. for 4 h. MTT solution was removed and cells again washed with 200 μL PBS. MTT dye was solubilised with 200 μL per well of DMSO with agitation.
(Tetrazolium assays rely on reduction of a dye to a coloured formazan, in cell work by metabolically active cells.)

Data set [3] is described as follows: Comparative in vitro metabolism assay (microsomal incubation). Conditions: for % Drug after 30 min. microsomal incubation: 10 μM compound, 0.2 mg microsomal protein, NADPH; for A: % Compound remaining/% roscovitine remaining: ratio to roscovitine, 30 min microsomal incubation.
Procedure: Calibration curves were prepared at 0, 1, and 10 μM in microsomes pre-incubated for 30 min and these were also treated with methanol containing olomoucine. All samples were then centrifuged and the supernatants analysed by liquid chromatography-mass spectrometry.
The chromatography column was a Supelco LC-ABZ, 50×4.6 mm, 5 μm zwitterionic column (Supelco Inc., Supelco Park, Bellefonte, Pa., USA). Gradient eluants consisted of methanol (A) and 0.1% formic acid in water (B). […] The flow rate was 1 mL/min throughout. […] Eluant from the detector passed, without splitting, into a Thermoquest LCQ ion trap mass spectrometer fitted with an electrospray source operated in positive mode. Mass spectrometer conditions were sheath gas 80, auxiliary gas 20 (both arbitrary units), capillary voltage 4 to 4.5 kV and heated capillary temperature 250 to 280° C. The mass range was 50-750. Scan time was controlled by the ion trap which was set to a maximum ion injection-time of 200 ms or the time required to inject 2×10^8 ions; for each scan the system automatically used whichever time was reached first.
The test system of data set [4] is representative panel of human transformed tumour cell lines. Kind of data set: Average anti-proliferative activity in tumour cell line panel. The class given is cell-based. Conditions: average over representative panel of human transformed tumour cell lines.

Bounds are passed on as bounds.

Procedure for CDK1/cyclin B: as §1
Procedure for CDK2/cyclin E: as §1
Procedure for CDK4/cyclin D1: as §1
Procedure for CDK7/cyclin H: as §1
Procedure for ERK2: Reactions were stopped on ice, followed by filtration through p81 filterplates or GF/C filterplates (for CDK4) (Whatman Polyfiltronics, Kent, UK), except for CDK7 where, after stopping reaction on ice, 10 μL of 10 mg/mL avidin was added to each well and further incubated for 10 min followed by filtration as per CDK2 assay. After washing 3 times with 75 mM aq orthophosphoric acid, plates were dried, scintillant added and incorporated radioactivity measured in a scintillation counter (TopCount, Packard Instruments, Pangbourne, Berks, UK). Compounds for kinase assay were made up as 10 mM stocks in DMSO and diluted into 10% DMSO in assay buffer.

Turning to `CC[C@@H](Nc1nc(NCc2ccccn2)c2ncn(C(C)C)c2n1)C(C)(C)O` [(3R)-3-{9-Isopropyl-6-[(pyridin-2-ylmethyl)-amino]-9H-purin-2-ylamino}-2-methyl-pentan-2-ol], the half-inhibitory concentration (IC50) at CDK2/cyclin E is 0.48 µM; against CDK1/cyclin B it was 44 µM; against CDK4/cyclin D1, 18 µM; against CDK7/cyclin H, 4.2 µM; in data set [1], more than 200 µM; on ERK2 it was more than 200 µM. The IC50 in data set [2] was found to be 35 µM.

`CCC(O)[C@H](CC)Nc1nc(NCc2ccccn2)c2ncn(C(C)C)c2n1` (mixture of isomers) [(3RS,4S)-4-{9-Isopropyl-6-[(pyridin-2-ylmethyl)-amino]-9H-purin-2-ylamino}-hexan-3-ol]: the 50% inhibitory concentration (IC50) on CDK2/cyclin E is 0.42 µM; against CDK1/cyclin B, 40 µM; against CDK4/cyclin D1 it was 24 µM; against CDK7/cyclin H, 2.6 µM; in data set [1] it was more than 200 µM; on ERK2 it was 80 µM. The concentration for half-maximal inhibition (IC50) in data set [2] came out at 27 µM.

On to `CC[C@H](Nc1nc(NCc2ccccn2)c2ncn(C(C)C)c2n1)C(O)C(C)(C)C` (mixture of isomers) [(3RS,4S)-4-{9-Isopropyl-6-[(pyridin-2-ylmethyl)-amino]-9H-purin-2-ylamino}-2,2-dimethyl-hexan-3-ol], for which the IC50 on CDK2/cyclin E was 1 µM; against CDK1/cyclin B, more than 200 µM; at CDK4/cyclin D1, 22 µM; against CDK7/cyclin H, 5.8 µM; in [1], more than 200 µM; on ERK2, 137 µM. Besides, the IC50 in data set [2] was 33 µM.

For the molecule `CC[C@H](Nc1nc(NCc2ccccn2)c2ncn(C(C)C)c2n1)[C@@H](C)O` [(2R3S)-3-{9-Isopropyl-6-[(pyridin-2-ylmethyl)-amino]-9H-purin-2-ylamino}-pentan-2-ol], the IC50 on CDK2/cyclin E is 0.05 µM; against CDK1/cyclin B it was 8.9 µM; on CDK4/cyclin D1 it was 18 µM; against CDK7/cyclin H, 2.6 µM; in data set [1], more than 200 µM; on ERK2, 77 µM. In addition, the IC50 in [2] amounted to 9.8 µM. The “A × B” value on CDK2/cyclin E (comparative in vitro efficacy: metabolism ratio × CDK2 ratio) came to 1.9. Further, the “B: IC50 CDK2 roscovitine/IC50 CDK2 compound” value on CDK2/cyclin E (ratio to roscovitine) was found to be 1.9. Besides, the “C: IC50 cytotox. roscovitine/IC50 cytotox. compound” value in [2] (ratio to roscovitine) is 1.2. Moreover, the “% Drug after 30 min. microsomal incubation” value in data set [3] is recorded as 33%. Further, the “A: % Compound remaining/% roscovitine remaining” value in [3] was 1.0.

For the molecule `CC[C@@H](Nc1nc(NCc2ccccn2)c2ncn(C(C)C)c2n1)C(O)C(C)(C)C` (mixture of isomers) [(3RS,4R)-4-{9-Isopropyl-6-[(pyridin-2-ylmethyl)-amino]-9H-purin-2-ylamino}-2,2-dimethyl-hexan-3-ol], the IC50 on CDK2/cyclin E was 2.8 µM; on CDK1/cyclin B, more than 200 µM; on CDK4/cyclin D1, 38 µM; against CDK7/cyclin H, 2.4 µM; in [1], more than 200 µM; at ERK2, more than 200 µM. Besides, the half-inhibitory concentration (IC50) in [2] turned out to be 38 µM.

`CC[C@@H](Nc1nc(NCc2ccccn2)c2ncn(C(C)C)c2n1)[C@H](C)O` [(2S3R)-3-{9-Isopropyl-6-[(pyridin-2-ylmethyl)-amino]-9H-purin-2-ylamino}-pentan-2-ol]: the half-maximal inhibitory concentration (IC50) on CDK2/cyclin E is 0.52 µM; against CDK1/cyclin B it was 39 µM; on CDK4/cyclin D1, 48 µM; at CDK7/cyclin H, 0.55 µM; in [1] it was more than 200 µM; against ERK2 it was 73 µM. Also, in data set [2], the half-maximal inhibitory concentration (IC50) was found to be 12 µM.

For `CC[C@@H](Nc1nc(NCc2ccccn2)c2ncn(C(C)C)c2n1)C(O)C(C)C` (mixture of isomers) [(3RS,4R)-4-{9-Isopropyl-6-[(pyridin-2-ylmethyl)-amino]-9H-purin-2-ylamino}-2-methyl-hexan-3-ol], the half-maximal inhibitory concentration (IC50) against CDK2/cyclin E was 3.4 µM; against CDK1/cyclin B it was 84 µM; against CDK4/cyclin D1 it was 32 µM; against CDK7/cyclin H, 3.9 µM; in data set [1], more than 200 µM; against ERK2, more than 200 µM. In [2], the half-inhibitory concentration (IC50) stood at 23 µM.

`CC[C@@H](Nc1nc(NCc2ccccc2)c2ncn(C(C)C)c2n1)C(=O)O` [carboxyl derivative, (2R)-2-(6-Benzylamino-9-isopropyl-9H-purin-2-ylamino)-butyric acid] showed an IC50 in data set [4] of more than 50 µM.

For the molecule `CCC(O)[C@@H](CC)Nc1nc(NCc2ccccn2)c2ncn(C(C)C)c2n1` (mixture of isomers) [(3RS,4R)-4-{9-Isopropyl-6-[(pyridin-2-ylmethyl)-amino]-9H-purin-2-ylamino}-hexan-3-ol], the IC50 at CDK2/cyclin E is 0.77 µM; at CDK1/cyclin B it was 35 µM; against CDK4/cyclin D1, 20 µM; against CDK7/cyclin H, 1.2 µM; in data set [1] it was more than 200 µM; against ERK2, 230 µM. Further, the IC50 in [2] came out at 19 µM.

In the case of `CC[C@H](CO)Nc1nc(NCc2ccccc2)c2ncn(C(C)C)c2n1` [Roscovitine, reference compound], in data set [3], the “% Drug after 30 min. microsomal incubation” value is 33% and the “A: % Compound remaining/% roscovitine remaining” value is reported as 1.0.

With `CC[C@H](Nc1nc(NCc2ccccn2)c2ncn(C(C)C)c2n1)C(O)C(C)C` (mixture of isomers) [(3RS,4S)-4-{9-Isopropyl-6-[(pyridin-2-ylmethyl)-amino]-9H-purin-2-ylamino}-2-methyl-hexan-3-ol], the half-maximal inhibitory concentration (IC50) at CDK2/cyclin E is 3.1 µM; on CDK1/cyclin B, more than 200 µM; at CDK4/cyclin D1 it was 49 µM; on CDK7/cyclin H it was 3.3 µM; in data set [1], more than 200 µM; at ERK2, more than 200 µM. Further, the IC50 in data set [2] worked out at 26 µM.
